Laboratory results reported in patent US6610270B1, “In vivo determination of metabolic function for use in therapy management” (Xanthus Life Sciences, Inc., priority 1998, dated 2003).
Read-outs that look alike come from different tables or passages of the source. Values belong to the compound of their own block, whether it stands above or below them. Square brackets hold non-standard residues; d marks the D form. Peptide text beside a SMILES is read from it. * marks the point of attachment. pNA = O=[N+]([O-])c1ccc(N*)cc1; Abu = CC[C@H](N)C(=O)O

Key:
[1] = sham breath test with free core tracer in septic rat model; assay type: in vivo, Sprague-Dawley rats; conditions: 1.5 mg/kg in saline, day 3, in 3 hours
Experimental: (§1) Also, over the 7 day experiment, the specific activity of plasma towards GP4NA in the control group averaged 29±6 nMol/min/ml while the septic titer rose to 43±7 and 49±6 on days two and six, respectively. The corresponding values of plasma activity towards GPPaba in the control group averaged 18±7 nMol/min/ml while the septic titer rose to 55±17 and 30±6 on days two and six, respectively. A “sham” breath test using 1.5 mg/kg administration of L-2-aminobutyric[1-^13C] acid in saline on day 3 of the experiment confirmed that oxidation of the release tag was similar in control and test groups, affording a cumulative oxidation of 65±8.3 and 72±9.4 per cent of dose recovery in 3 hours, respectively.

[2] = target: T1, Dipeptidyl peptidase IV (DPPIV) (Sus scrofa, UniProt P22411); test: in-vitro Michaelis-Menten assay with dipeptidyl peptidase reference enzyme; assay type: biochemical; conditions: read-out: apparent Km
T1 construct: purchased Sigma-Aldrich D7052
T1 sequence (P22411 whole entry): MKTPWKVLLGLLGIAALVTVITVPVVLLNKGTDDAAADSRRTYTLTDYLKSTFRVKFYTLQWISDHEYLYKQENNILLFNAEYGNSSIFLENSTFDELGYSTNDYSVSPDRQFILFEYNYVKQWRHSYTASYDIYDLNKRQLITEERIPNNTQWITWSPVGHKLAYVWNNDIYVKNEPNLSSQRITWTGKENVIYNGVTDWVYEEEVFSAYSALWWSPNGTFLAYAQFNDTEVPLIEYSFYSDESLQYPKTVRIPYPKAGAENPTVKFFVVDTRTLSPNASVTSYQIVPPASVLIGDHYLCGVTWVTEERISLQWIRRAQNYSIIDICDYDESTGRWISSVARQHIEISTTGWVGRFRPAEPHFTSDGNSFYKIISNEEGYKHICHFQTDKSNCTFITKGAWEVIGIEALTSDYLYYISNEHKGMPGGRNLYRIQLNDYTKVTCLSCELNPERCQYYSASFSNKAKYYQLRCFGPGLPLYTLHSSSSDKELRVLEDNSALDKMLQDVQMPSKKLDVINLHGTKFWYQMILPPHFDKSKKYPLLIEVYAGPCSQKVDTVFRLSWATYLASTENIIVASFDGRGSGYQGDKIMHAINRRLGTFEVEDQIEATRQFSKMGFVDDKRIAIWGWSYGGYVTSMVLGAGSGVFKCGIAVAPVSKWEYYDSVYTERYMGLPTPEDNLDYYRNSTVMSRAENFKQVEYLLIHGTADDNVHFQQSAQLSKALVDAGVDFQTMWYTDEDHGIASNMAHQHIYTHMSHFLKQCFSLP
Excerpt: Dipeptidyl peptidase reference enzyme was purchased from Sigma-Aldrich (D7052) and assayed by the standard Michaelis-Menten method described in similar studies by Barth and co-workers (Heins, et al.; Rahfeld, et al.). […] Hydrolysis of the latter was quantitated by isotope dilution GC/MS of the N-trifluoroacetyl-propyl ester, using L-2-aminobutyric[^2H5] acid as the internal standard.

[3] = target: T2, DPPIV (Rattus norvegicus, UniProt P14740); test: plasma enzyme activity towards DPPIV substrates in septic rat model; assay type: biochemical, Sprague-Dawley rats
T2 construct: from tissue; host or cells: plasma of control and septic rats
T2 sequence (P14740 37-767 limits assumed): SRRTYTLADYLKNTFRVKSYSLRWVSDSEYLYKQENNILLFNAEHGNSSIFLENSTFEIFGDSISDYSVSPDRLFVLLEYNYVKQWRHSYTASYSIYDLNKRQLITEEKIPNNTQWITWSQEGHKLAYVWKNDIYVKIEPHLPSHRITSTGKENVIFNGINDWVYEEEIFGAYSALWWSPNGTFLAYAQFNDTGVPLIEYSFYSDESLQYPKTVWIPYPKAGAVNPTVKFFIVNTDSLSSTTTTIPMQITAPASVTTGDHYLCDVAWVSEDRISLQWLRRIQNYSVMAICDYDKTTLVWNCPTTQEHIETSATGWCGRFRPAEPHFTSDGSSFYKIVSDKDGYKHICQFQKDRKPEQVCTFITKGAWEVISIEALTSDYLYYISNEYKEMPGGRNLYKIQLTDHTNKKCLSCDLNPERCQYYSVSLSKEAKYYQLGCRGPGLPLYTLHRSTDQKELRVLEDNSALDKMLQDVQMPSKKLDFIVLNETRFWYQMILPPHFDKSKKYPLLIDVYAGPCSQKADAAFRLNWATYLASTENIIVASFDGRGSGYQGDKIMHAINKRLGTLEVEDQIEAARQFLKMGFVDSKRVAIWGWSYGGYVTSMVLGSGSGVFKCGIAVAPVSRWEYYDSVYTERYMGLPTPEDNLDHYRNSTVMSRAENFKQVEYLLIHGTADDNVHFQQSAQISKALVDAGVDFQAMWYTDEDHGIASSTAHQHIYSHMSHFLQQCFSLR
Experimental: (§2) Accordingly, ten male Sprague-Dawley rats, weighing approximately 300 gr., were injected with 3.5 mg/kg of GPA (prepared by sterile ultrafiltration in saline) and placed into metabolic cages for ^13CO2 collection (by alkaline trapping in seven 0.5 hour increments), in general as described by Vann et al. A blood draw of 0.4 ml was taken prior to the tracer administration to provide a baseline plasma titer for in vivo DPPIV activity. The following day, the rats were separated into a control panel and a test panel. Each of the three animals in the test panel was made septic (on Day 0) by intravenous (tail vein) adminstration of E. coli. Three control animals were sham injected with saline, and all were maintained in separate cages.
(§3) On day 2 and 6, and after a […], the administration of the “breath test” metaprobe and ^13CO2 collection was repeated. Equal aliquots of plasma were assayed for enzyme activity by spectrophotometry in two ways: a) using GP4NA (FIG. 16, structure I), a traditional and confirmatory approach, and b) using GPPaba (FIG. 16, structure III with R1 being the protonated free acid) by GC/MS quantitation of the p-aminobenzoic[1-^13C] acid (Paba, FIG. 16, structure IV) derived hydrolytically. The isotopic enrichment of the seven breath collections was measured by isotope ratio mass spectrometry, of the gas liberated after phosphoric acid protonation. The cumulative extent of metaprobe metabolism, as a per cent of dose taking into account the total CO2 production rate of each animal (Mohan et al.) was then calculated.
as §1

[4] = tested on: nitric oxide synthase (NOS)
Excerpt: These studies constitute part of a continuing series intended to extend the protocols initiated by Castillo et al. (1996) and depend on intravenous metaprobe administration and mass spectral analysis of the resulting analytes extracted from plasma.

[5] = target: T3, bovine thrombin (Bos taurus, UniProt P00735); test: metaprobe hydrolysis in solution by purified thrombin; assay type: biochemical; conditions: 0.5 NIH unit per ml, pH 8.4, 37° C., 15 minutes
T3 construct: Freshly prepared solutions of bovine thrombin and bovine plasmin, from reconstituted lyophilized powders (Sigma); purchased Sigma
Experimental: (§4) The suitability of substrates I-VI was tested by the enzymatic assay protocol of Svendsen. Freshly prepared solutions of bovine thrombin and bovine plasmin, from reconstituted lyophilized powders (Sigma) were prepared in tris-imidazole buffer at pH 8.4 to deliver nominally 0.5 NIH unit per ml of thrombin and 1 WHO unit of plasmin. After preincubation for 5 minutes at 37° C., 0.25 ml of an 0.5 mMolar solution of each substrate in the same aqueous buffer was added and the separate reactions incubated for 15 minutes at the same temperature. Reaction was stopped by addition of 1:9 concentrated HCl:methanol. Concentration of the supernatant, ion exchange chromatography on Dowex-50, with 2N ammonia water eluant, as a further desalting and deproteinizing step, afforded the amino acid fraction resulting from the enzymatic hydrolysis of the metaprobes. The concentration of p-aminobenzoic[1-^13C] acid (with tetradeutero isotopolog as internal quantitation standard) and of L-2-aminobutyric[1-^13C] acid (with pentadeutero isotopolog as internal quantitation standard) were then analyzed by isotope dilution GC/MS using the N-trifluoroacetyl propyl ester derivatives and the total hydrolytic conversion expressed as […]

[6] = target: T4, bovine plasmin (Bos taurus, UniProt P06868); test: metaprobe hydrolysis in solution by purified plasmin; assay type: biochemical; conditions: 1 WHO unit, pH 8.4, 37° C., 15 minutes
T4 construct: Freshly prepared solutions of bovine thrombin and bovine plasmin, from reconstituted lyophilized powders (Sigma); purchased Sigma
T4 sequence (P06868 584-812 limits assumed): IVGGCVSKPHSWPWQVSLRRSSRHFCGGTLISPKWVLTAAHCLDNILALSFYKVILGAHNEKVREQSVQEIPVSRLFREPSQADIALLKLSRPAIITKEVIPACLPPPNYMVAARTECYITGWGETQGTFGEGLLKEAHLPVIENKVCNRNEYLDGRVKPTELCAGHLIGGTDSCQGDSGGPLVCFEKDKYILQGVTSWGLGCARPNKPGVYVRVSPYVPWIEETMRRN
T4 sequence (P06868 104-583 limits assumed): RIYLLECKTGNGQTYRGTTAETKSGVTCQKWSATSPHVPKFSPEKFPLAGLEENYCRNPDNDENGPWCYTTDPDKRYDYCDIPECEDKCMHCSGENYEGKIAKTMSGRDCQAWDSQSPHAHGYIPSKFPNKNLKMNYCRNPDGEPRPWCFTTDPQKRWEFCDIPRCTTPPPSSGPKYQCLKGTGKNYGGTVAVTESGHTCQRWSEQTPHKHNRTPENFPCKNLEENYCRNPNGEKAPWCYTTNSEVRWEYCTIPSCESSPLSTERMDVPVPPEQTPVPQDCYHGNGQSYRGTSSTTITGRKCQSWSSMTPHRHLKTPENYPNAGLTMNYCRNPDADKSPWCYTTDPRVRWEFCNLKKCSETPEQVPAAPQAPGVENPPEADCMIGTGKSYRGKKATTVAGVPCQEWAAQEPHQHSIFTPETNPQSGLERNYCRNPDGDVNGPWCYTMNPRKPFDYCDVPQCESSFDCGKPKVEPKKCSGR
Experimental: as §4

[7] = target: T5, plasmin (Rattus norvegicus, UniProt Q01177); test: plasmin metaprobe hydrolysis in whole blood, septic rat model; assay type: biochemical
T5 construct: from tissue; host or cells: unfractionated whole blood of control and septic rats
T5 sequence (Q01177 582-812 limits assumed): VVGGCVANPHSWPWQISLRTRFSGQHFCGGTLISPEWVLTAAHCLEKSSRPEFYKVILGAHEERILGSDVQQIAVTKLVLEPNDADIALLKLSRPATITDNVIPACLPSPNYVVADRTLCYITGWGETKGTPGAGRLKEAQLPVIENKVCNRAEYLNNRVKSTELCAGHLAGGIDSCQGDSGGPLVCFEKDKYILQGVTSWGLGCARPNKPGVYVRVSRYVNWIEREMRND
T5 sequence (Q01177 97-581 limits assumed): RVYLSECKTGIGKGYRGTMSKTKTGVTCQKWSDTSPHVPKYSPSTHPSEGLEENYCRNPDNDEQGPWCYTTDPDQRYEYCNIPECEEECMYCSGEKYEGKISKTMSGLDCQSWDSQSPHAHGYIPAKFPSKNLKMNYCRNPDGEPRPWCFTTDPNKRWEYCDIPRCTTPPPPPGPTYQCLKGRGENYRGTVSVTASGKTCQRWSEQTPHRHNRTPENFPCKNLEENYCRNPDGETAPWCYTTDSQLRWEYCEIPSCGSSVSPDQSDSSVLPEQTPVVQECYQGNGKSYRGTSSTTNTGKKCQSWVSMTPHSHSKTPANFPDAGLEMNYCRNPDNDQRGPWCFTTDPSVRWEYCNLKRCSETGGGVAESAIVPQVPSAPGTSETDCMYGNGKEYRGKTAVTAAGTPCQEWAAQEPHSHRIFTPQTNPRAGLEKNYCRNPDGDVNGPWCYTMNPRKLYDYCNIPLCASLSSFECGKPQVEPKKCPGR

[8] = target: T6, thrombin (Rattus norvegicus, UniProt P18292); test: thrombin metaprobe hydrolysis in whole blood, septic rat model; assay type: biochemical
T6 construct: from tissue; host or cells: unfractionated whole blood of control and septic rats

[9] = tested on: thrombin and plasmin; test: net coagulant potential (NCP) in whole blood, septic rat model; assay type: biochemical
[10] = tested on: Aminopeptidase P (APP); conditions: Human BAL
[11] = tested on: Aminopeptidase P (APP); conditions: Rat Plasma
[12] = target: T7, Dipeptidyl Peptidase IV (DPPIV/CD26) (Rattus norvegicus, UniProt P14740); test: DPPIV metaprobe breath test in the septic rat; assay type: in vivo, Sprague-Dawley rats; conditions: 3.5 mg/kg injected
T7 construct: from tissue; host or cells: whole rat in vivo (injected dose, 13CO2 collection)
T7 sequence (P14740 whole entry): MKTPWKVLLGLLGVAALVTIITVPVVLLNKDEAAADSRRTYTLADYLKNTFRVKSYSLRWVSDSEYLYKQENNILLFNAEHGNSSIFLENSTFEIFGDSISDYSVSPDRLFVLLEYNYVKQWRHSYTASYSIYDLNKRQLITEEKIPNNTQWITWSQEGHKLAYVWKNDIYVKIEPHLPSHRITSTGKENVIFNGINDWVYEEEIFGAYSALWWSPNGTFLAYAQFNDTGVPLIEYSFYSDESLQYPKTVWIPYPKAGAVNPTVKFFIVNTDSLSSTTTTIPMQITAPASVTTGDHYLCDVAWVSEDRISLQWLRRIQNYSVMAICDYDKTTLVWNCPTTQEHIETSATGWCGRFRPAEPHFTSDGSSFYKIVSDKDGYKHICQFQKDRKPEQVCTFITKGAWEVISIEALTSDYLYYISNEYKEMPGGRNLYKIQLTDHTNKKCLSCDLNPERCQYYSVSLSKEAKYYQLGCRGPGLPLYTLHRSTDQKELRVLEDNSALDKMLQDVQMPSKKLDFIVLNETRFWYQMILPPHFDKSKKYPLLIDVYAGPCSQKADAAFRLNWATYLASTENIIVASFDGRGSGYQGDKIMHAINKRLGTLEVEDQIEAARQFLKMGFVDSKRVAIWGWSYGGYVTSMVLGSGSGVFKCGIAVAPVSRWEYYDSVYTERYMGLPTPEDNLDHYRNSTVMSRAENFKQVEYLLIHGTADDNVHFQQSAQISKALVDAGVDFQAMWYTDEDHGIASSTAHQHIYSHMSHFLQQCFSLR
Experimental: as §2, §3

[13] = control group, average over the 7 day experiment

- cumulative oxidation, per cent of dose recovery ([1]; control group): 65±8.3 per cent of dose
- cumulative oxidation, per cent of dose recovery ([1]; test (septic) group): 72±9.4 per cent of dose
Compound: CC[C@H](N)[13C](=O)O [L-2-aminobutyric[1-^13C] acid]

- Km [2]: 130 µM
- specific activity of plasma towards substrate [3, 13]: 29 ± 6 nmol/min/mL
- specific activity of plasma towards substrate ([3]; septic, day six): 49 ± 6 nmol/min/mL
- specific activity of plasma towards substrate ([3]; septic, day two): 43 ± 7 nmol/min/mL
Compound: NCC(=O)N1CCC[C@H]1C(=O)Nc1ccc([N+](=O)[O-])cc1 [GP4NA, Glycyl-Prolyl-4-nitro-anilide, reference compound] (H-Gly-Pro-pNA)

Compound: N[C@@H](CCCN=C([15NH2])[15NH2])C(=O)O [L-arginine[guanidino-^15N2]]
- NOPI2 on Admission ([4]; 2 day average in ICU, rapid recovery, no sepsis, n = 4): 0.3 +/− 0.14 (n = 4)
- NOPI2 on Admission ([4]; 4 day average in ICU, recovery, sepsis treated successfully, n = 4): 2.99 +/− 1.24 (n = 4)
- NOPI2 on Admission ([4]; 7 day average in ICU, death from complications of sepsis and trauma, n = 3): 6.64 +/− 1.92 (n = 3)
- NOPI2 on Admission ([4]; Normal Control, healthy (not admitted), n = 4): 0.2 +/− 0.15 (n = 4)

Compound: CCO[13C](=O)[C@H](CC)NC(=O)[C@H](CCCCN)NC(=O)[C@H](CC(C)C)NC(=O)[C@@H](N)CC(C)C [Substrate VI, L-leucyl-L-leucyl-L-lysyl-L-2-aminobutyric[1-^13C] acid, ethyl ester]
- Product formed, Thrombin [5]: 0.4 nmol/min/mL
- Product formed, Plasmin [6]: 8.1 nmol/min/mL
- Percent of Metaprobe Dose Metabolized ([7]; Control, Day 0): 11 ± 5%
- Percent of Metaprobe Dose Metabolized ([7]; Septic, Day 2): 14 ± 7%
- Percent of Metaprobe Dose Metabolized ([7]; Septic, Day 6): 52 ± 17%
- Percent of Metaprobe Dose Metabolized ([7]; Septic, Day 10): 23 ± 12%

- specific activity of plasma towards substrate [3, 13]: 18 ± 7 nmol/min/mL
- specific activity of plasma towards substrate ([3]; septic, day six): 30 ± 6 nmol/min/mL
- specific activity of plasma towards substrate ([3]; septic, day two): 55 ± 17 nmol/min/mL
Compound: gylcyl-prolyl-p-aminobenzoic[1-^13C] acid [GPPaba]

- Km [2]: 200 µM
Compound: CC[C@H](NC(=O)[C@@H]1CCCN1C(=O)CN)C(=O)O [GPA, glycyl-prolyl-2-aminobutyric[1-^13C] acid] (H-Gly-Pro-[Abu]-OH)

Compound: CCO[13C](=O)[C@H](CC)NC(=O)[C@H](CCCNC(=N)N)NC(=O)[C@@H]1CCCN1C(=O)CNC(C)=O [Substrate IV, N-acetyl-glycyl-L-prolyl-L-arginyl-L-2-aminobutyric[1-^13C] acid, ethyl ester]
- Product formed, Thrombin [5]: 7.8 nmol/min/mL
- Product formed, Plasmin [6]: 3.1 nmol/min/mL
- Percent of Metaprobe Dose Metabolized ([8]; Control, Day 0): 22 ± 9%
- Percent of Metaprobe Dose Metabolized ([8]; Septic, Day 2): 76 ± 15%
- Percent of Metaprobe Dose Metabolized ([8]; Septic, Day 6): 39 ± 12%
- Percent of Metaprobe Dose Metabolized ([8]; Septic, Day 10): 25 ± 10%
- NCP, net coagulant potential (difference between metaprobe IV and VI) ([9]; Control, Day 0): 11 ± 10%
- NCP, net coagulant potential (difference between metaprobe IV and VI) ([9]; Septic, Day 2): 62 ± 17%
- NCP, net coagulant potential (difference between metaprobe IV and VI) ([9]; Septic, Day 6): −13 ± 21%
- NCP, net coagulant potential (difference between metaprobe IV and VI) ([9]; Septic, Day 10): 2 ± 15%

Compound: CCO[13C](=O)c1ccc(NC(=O)C(CCCNC(=N)N)NC(=O)C2CCCN2C(=O)CNC(C)=O)cc1 [Substrate III, N-acetyl-glycyl-L-prolyl-L-arginyl-p-aminobenzoic[1-^13C] acid, ethyl ester]
- Product formed, Thrombin [5]: 6.6 nmol/min/mL
- Product formed, Plasmin [6]: 3.6 nmol/min/mL

- % Dose metabolized ([10]; Control, two hour incubation at 37° C.): 22 ± 4 % Dose
- % Dose metabolized ([10]; Test sample, ARDS): 44 ± 14 % Dose
- % Dose metabolized ([11]; Control): 5 ± 4 % Dose
- % Dose metabolized ([11]; Test sample, Sepsis): 28 ± 7 % Dose
Compound: CCOC(=O)[C@@H]1CCCN1C(=O)[C@@H]1CCCN1[13C](=O)CN [Aminopeptidase P Metaprobe, glycyl[1-^13C]-L-prolyl-L-proline, ethyl ester]

- Cumulative Per Cent of Dose Exhaled in 3 Hours ([12]; Day 1, CONTROL): 4.3 (± 0.8) Per Cent of Dose
- Cumulative Per Cent of Dose Exhaled in 3 Hours ([12]; Day 1, SEPSIS): 5.7 (± 1.4) Per Cent of Dose
- Cumulative Per Cent of Dose Exhaled in 3 Hours ([12]; Day 2, CONTROL): 8.9 (± 1.3) Per Cent of Dose
- Cumulative Per Cent of Dose Exhaled in 3 Hours ([12]; Day 2, SEPSIS): 22.5 (± 5.3) Per Cent of Dose
- Cumulative Per Cent of Dose Exhaled in 3 Hours ([12]; Day 6, CONTROL): 4.9 (± 0.8) Per Cent of Dose
- Cumulative Per Cent of Dose Exhaled in 3 Hours ([12]; Day 6, SEPSIS): 9.2 (± 6.3) Per Cent of Dose
Compound: CC[C@H](NC(=O)[C@@H]1CCCN1C(=O)CN)[13C](=O)O [GPA, glycyl-prolyl-2-aminobutyric[1-^13C] acid]

Compound: CCO[13C](=O)c1ccc(NC(=O)[C@H](CCCNC(=N)N)NC(=O)[C@@H]2CCCN2C(=O)[C@@H](Cc2ccccc2)NC(C)=O)cc1 [Substrate I, N-acetyl-d-phenylalanyl-L-prolyl-L-arginyl-p-aminobenzoic[1-^13C] acid, ethyl ester]
- Product formed, Thrombin [5]: 6.0 nmol/min/mL
- Product formed, Plasmin [6]: 1.8 nmol/min/mL

Compound: CCO[13C](=O)c1ccc(NC(=O)[C@H](CCCCN)NC(=O)[C@H](CC(C)C)NC(=O)[C@@H](N)CC(C)C)cc1 [Substrate V, L-leucyl-L-leucyl-L-lysyl-p-aminobenzoic[1-^13C] acid, ethyl ester]
- Product formed, Thrombin [5]: 0.3 nmol/min/mL
- Product formed, Plasmin [6]: 7.2 nmol/min/mL

Compound: CCO[13C](=O)[C@H](CC)NC(=O)[C@H](CCCNC(=N)N)NC(=O)[C@@H]1CCCN1C(=O)[C@@H](Cc1ccccc1)NC(C)=O [Substrate II, N-acetyl-d-phenylalanyl-L-prolyl-L-arginyl-L-2-aminobutyric[1-^13C] acid, ethyl ester]
- Product formed, Thrombin [5]: 6.9 nmol/min/mL
- Product formed, Plasmin [6]: 2.3 nmol/min/mL
